According to patent US7709482B2, “Polycyclic heteroaryl substituted triazoles useful as Axl inhibitors” (Rigel Pharmaceuticals, Inc., priority 2006, dated 2010):
Like-named read-outs stand apart in the source and are kept apart here.

Molecular target: T1, Axl (Homo sapiens, UniProt P30530)
T1 construct: endogenous in cells; host or cells: HeLa cells
T1 sequence (P30530 26-894): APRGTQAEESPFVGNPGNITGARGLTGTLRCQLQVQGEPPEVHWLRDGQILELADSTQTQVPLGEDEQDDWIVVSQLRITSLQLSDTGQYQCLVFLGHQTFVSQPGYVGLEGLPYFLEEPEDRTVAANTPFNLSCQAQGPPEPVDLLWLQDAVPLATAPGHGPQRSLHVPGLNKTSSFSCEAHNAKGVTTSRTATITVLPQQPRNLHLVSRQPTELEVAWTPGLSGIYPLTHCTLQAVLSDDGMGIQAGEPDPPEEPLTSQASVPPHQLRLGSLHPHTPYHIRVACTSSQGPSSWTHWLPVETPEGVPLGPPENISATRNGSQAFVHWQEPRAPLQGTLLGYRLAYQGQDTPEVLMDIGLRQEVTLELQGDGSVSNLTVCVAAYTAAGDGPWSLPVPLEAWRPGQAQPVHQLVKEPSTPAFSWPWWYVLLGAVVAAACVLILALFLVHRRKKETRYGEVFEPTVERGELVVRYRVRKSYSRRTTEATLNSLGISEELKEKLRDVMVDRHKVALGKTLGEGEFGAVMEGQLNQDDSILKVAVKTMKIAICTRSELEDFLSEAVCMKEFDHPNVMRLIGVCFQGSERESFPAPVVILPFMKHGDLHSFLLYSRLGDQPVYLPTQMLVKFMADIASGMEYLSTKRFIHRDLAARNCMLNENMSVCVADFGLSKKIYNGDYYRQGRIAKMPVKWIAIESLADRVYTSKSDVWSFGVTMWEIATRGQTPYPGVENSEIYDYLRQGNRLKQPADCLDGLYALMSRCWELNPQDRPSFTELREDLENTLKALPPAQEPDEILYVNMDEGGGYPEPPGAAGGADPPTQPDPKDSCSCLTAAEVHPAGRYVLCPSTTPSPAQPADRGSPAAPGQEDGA
Assay: Phospho-Akt In-Cell Western Assay (inhibition of Axl activity after Axl-antibody cross-linking)
Assay type: cell-based
Conditions: read-out: IC50
How it was run: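 Phospho-Akt was detected in formaldehyde-fixed cells by in-cell immunostaining with HRP chemiluminescence. Before fixation, HeLa cells kept 24 h in low-serum medium containing 500 ng/mL Axl/Fc received compound for 1 h at 37 °C, followed by 5-min Axl activation through antibody clustering.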

[1] = Hela cells, phospho-Akt chemiluminescence normalized to relative cell number, compounds of formula (Ia), Table 1
[2] = inhibition of Axl activity, Table 1, compounds of formula (Ia)

IC50 [1]	IC50 [2]	Compound
< 1000 nM	–	CC(C)N1CCN(Cc2ccc(Nc3nc(N)n(-c4cc5c(nn4)-c4ccccc4CCC5)n3)cc2)CC1 [Compound 108, 1-(6,7-dihydro-5H-benzo[6,7]cyclohepta[1,2-c]pyridazin-3-yl)-N^3-(4-((4-isopropylpiperazinyl)methyl)-phenyl)-1H-1,2,4-triazole-3,5-diamine]
< 1000 nM	–	CC(C)N1CCN(c2ccc(Nc3nc(N)n(-c4cc5c(nn4)-c4ccccc4CCC5)n3)cc2F)CC1 [Compound 111, 1-(6,7-dihydro-5H-benzo[6,7]cyclohepta[1,2-c]pyridazin-3-yl)-N^3-(3-fluoro-4-(N-isopropylpiperazin-1-yl)phenyl)-1H-1,2,4-triazole-3,5-diamine]
< 1000 nM	–	Nc1nc(Nc2ccc(N3CCC(N4CCCC4)CC3)c(F)c2)nn1-c1cc2c(nn1)-c1ccccc1OCC2 [Compound 117, 1-(6,7-dihydro-5H-benzo[2,3]oxepino[4,5-c]pyridazin-3-yl)-N^3-(3-fluoro-4-(4-pyrrolidin-1-ylpiperidinyl)phenyl)-1H-1,2,4-triazole-3,5-diamine]
1000 to 10000 nM	–	Nc1nc(Nc2ccc3oc(CN4CCCC4)nc3c2)nn1-c1cc2c(nn1)-c1ccccc1OCC2 [Compound 118, 1-(6,7-dihydro-5H-benzo[2,3]oxepino[4,5-c]pyridazin-3-yl)-N^3-(2-(pyrrolidin-1-ylmethyl)benzo[d]oxazol-5-yl)-1H-1,2,4-triazole-3,5-diamine]
< 1000 nM	–	Nc1nc(Nc2ccc(N3CCC(N4CCCC4)CC3)cc2)nn1-c1cc2c(nn1)-c1ccccc1SCC2 [Compound 120, 1-(6,7-dihydro-5H-benzo[2,3]thiepino[4,5-c]pyridazin-3-yl)-N^3-(4-(4-pyrrolidin-1-ylpiperidinyl)phenyl)-1H-1,2,4-triazole-3,5-diamine]
< 1000 nM	–	CN(C)CCN1CCOc2cc(Nc3nc(N)n(-c4cc5c(nn4)-c4ccccc4CCC5)n3)ccc21 [Compound 121, 1-(6,7-dihydro-5H-benzo[6,7]cyclohepta[1,2-c]pyridazin-3-yl)-N^3-(4-(2-dimethylaminoethyl)-(3,4-dihydro-2H-benzo[b][1,4]oxazin-7-yl))-1H-1,2,4-triazole-3,5-diamine]
< 1000 nM	–	CN(C)CCN1CCOc2cc(Nc3nc(N)n(-c4cc5c(nn4)-c4ccccc4OCC5)n3)ccc21 [Compound 122, 1-(6,7-dihydro-5H-benzo[2,3]oxepino[4,5-c]pyridazin-3-yl)-N^3-(4-(2-dimethylaminoethyl)-(3,4-dihydro-2H-benzo[b][1,4]oxazin-7-yl))-1H-1,2,4-triazole-3,5-diamine]
> 20000 nM	–	Nc1nc(Nc2ccc(N3Cc4ccccc4C3)c(F)c2)nn1-c1cc2c(nn1)-c1ccccc1SCC2 [Compound 123, 1-(6,7-dihydro-5H-benzo[2,3]thiepino[4,5-c]pyridazin-3-yl)-N^3-(3-fluoro-4-(isoindolin-2-yl)phenyl)-1H-1,2,4-triazole-3,5-diamine]
< 1000 nM	–	Nc1nc(Nc2ccc(N3CCC(CN4CCCC4)CC3)c(F)c2)nn1-c1cc2c(nn1)-c1ccccc1SCC2 [Compound 125, 1-(6,7-dihydro-5H-benzo[2,3]thiepino[4,5-c]pyridazin-3-yl)-N^3-(3-fluoro-4-(4-(pyrrolidinylmethyl)-piperidinyl)phenyl)-1H-1,2,4-triazole-3,5-diamine]
> 20000 nM	–	Nc1nc(Nc2ccc(N3CC[C@H]4CCCC[C@@H]4C3)c(F)c2)nn1-c1cc2c(nn1)-c1ccccc1SCC2 [Compound 126, 1-(6,7-dihydro-5H-benzo[2,3]thiepino[4,5-c]pyridazin-3-yl)-N^3-(3-fluoro-4-((4aR,8aS)-decahydroisoquinolin-2-yl)phenyl)-1H-1,2,4-triazole-3,5-diamine]
–	1000 to 10000 nM	Nc1nc(Nc2ccc(N3CCN4CCCCC4C3)c(F)c2)nn1-c1cc2c(nn1)-c1ccccc1CCC2 (centres unmarked) [Compound 128, 1-(6,7-dihydro-5H-benzo[6,7]cyclohepta[1,2-c]pyridazin-3-yl)-N^3-(3-fluoro-4-(octahydro-1H-pyrido[1,2-a]pyrazin-2-yl)phenyl)-1H-1,2,4-triazole-3,5-diamine]
–	1000 to 10000 nM	CCN(CC)CC1CCCN1c1ccc(Nc2nc(N)n(-c3cc4c(nn3)-c3ccccc3CCC4)n2)cn1 (centres unmarked) [Compound 130, 1-(6,7-dihydro-5H-benzo[6,7]cyclohepta[1,2-c]pyridazin-3-yl)-N^3-(6-(2-diethylaminomethyl)pyrrolidin-1-ylpyridin-3-yl)-1H-1,2,4-triazole-3,5-diamine]

The remaining lines, values behind:

Compound	IC50 [1]	IC50 [2]
CN1CCC(N2CCN(c3ccc(Nc4nc(N)n(-c5cc6c(nn5)-c5ccccc5CCC6)n4)cc3F)CC2)CC1 [Compound 109, 1-(6,7-dihydro-5H-benzo[6,7]cyclohepta[1,2-c]pyridazin-3-yl)-N^3-(3-fluoro-4-(4-N-methylpiperidin-4-ylpiperazinyl)phenyl)-1H-1,2,4-triazole-3,5-diamine]	< 1000 nM	–
CN1CCC2(CCN(c3ccc(Nc4nc(N)n(-c5cc6c(nn5)-c5ccccc5CCC6)n4)cc3F)C2)C1 (centres unmarked) [Compound 110, 1-(6,7-dihydro-5H-benzo[6,7]cyclohepta[1,2-c]pyridazin-3-yl)-N^3-(3-fluoro-4-(7-methyl-2,7-diazaspiro[4.4]nonan-2-yl)phenyl)-1H-1,2,4-triazole-3,5-diamine]	< 1000 nM	–
Nc1nc(Nc2ccc(N3CC(N4CCCC4)C3)c(F)c2)nn1-c1cc2c(nn1)-c1ccccc1CCC2 [Compound 113, 1-(6,7-dihydro-5H-benzo[6,7]cyclohepta[1,2-c]pyridazin-3-yl)-N^3-(3-fluoro-4-(3-pyrrolidin-1-ylazetidinyl)phenyl)-1H-1,2,4-triazole-3,5-diamine]	< 1000 nM	–
Cc1cc(Nc2nc(N)n(-c3cc4c(nn3)-c3ccccc3CCC4)n2)ccc1N1CCC(N2CCN(C)CC2)CC1 [Compound 114, 1-(6,7-dihydro-5H-benzo[6,7]cyclohepta[1,2-c]pyridazin-3-yl)-N^3-(3-methyl-4-(4-(N-methylpiperazin-4-yl)piperidin-1-yl)phenyl)-1H-1,2,4-triazole-3,5-diamine]	< 1000 nM	–
Nc1nc(Nc2ccc(N3CC[C@@H](CN4CCCC4)C3)c(F)c2)nn1-c1cc2c(nn1)-c1ccccc1CCC2 [Compound 115, 1-(6,7-dihydro-5H-benzo[6,7]cyclohepta[1,2-c]pyridazin-3-yl)-N^3-(3-fluoro-4-((S)-3-(pyrrolidin-1-ylmethyl)pyrrolidinyl)phenyl)-1H-1,2,4-triazole-3,5-diamine]	1000 to 10000 nM	–
Nc1nc(Nc2ccc(N3CCC(N4CCCC4)CC3)cc2)nn1-c1cc2c(nn1)-c1ccccc1OCC2 [Compound 116, 1-(6,7-dihydro-5H-benzo[2,3]oxepino[4,5-c]pyridazin-3-yl)-N^3-(4-(4-pyrrolidin-1-ylpiperidinyl)phenyl)-1H-1,2,4-triazole-3,5-diamine]	1000 to 10000 nM	–
Nc1nc(Nc2ccc(N3CCC(N4CCCC4)CC3)c(F)c2)nn1-c1cc2c(nn1)-c1ccccc1SCC2 [Compound 119, 1-(6,7-dihydro-5H-benzo[2,3]thiepino[4,5-c]pyridazin-3-yl)-N^3-(3-fluoro-4-(4-pyrrolidin-1-ylpiperidinyl)phenyl)-1H-1,2,4-triazole-3,5-diamine]	< 1000 nM	–
Nc1nc(Nc2ccc(N3CCC(CN4CCCC4)CC3)c(F)c2)nn1-c1cc2c(nn1)-c1ccccc1CCC2 [Compound 124, 1-(6,7-dihydro-5H-benzo[6,7]cyclohepta[1,2-c]pyridazin-3-yl)-N^3-(3-fluoro-4-(4-(pyrrolidinylmethyl)-piperidinyl)phenyl)-1H-1,2,4-triazole-3,5-diamine]	< 1000 nM	–
Nc1nc(Nc2ccc(N3CC[C@H]4CCCC[C@@H]4C3)c(F)c2)nn1-c1cc2c(nn1)-c1ccccc1CCC2 [Compound 127, 1-(6,7-dihydro-5H-benzo[6,7]cyclohepta[1,2-c]pyridazin-3-yl)-N^3-(3-fluoro-4-((4aR,8aS)-decahydroisoquinolin-2-yl)phenyl)-1H-1,2,4-triazole-3,5-diamine]	1000 to 10000 nM	–
Nc1nc(Nc2ccc(N3CCN4CCCCC4C3)c(F)c2)nn1-c1cc2c(nn1)-c1ccccc1SCC2 (centres unmarked) [Compound 129, 1-(6,7-dihydro-5H-benzo[2,3]thiepino[4,5-c]pyridazin-3-yl)-N^3-(3-fluoro-4-(octahydro-1H-pyrido[1,2-a]pyrazin-2-yl)phenyl)-1H-1,2,4-triazole-3,5-diamine]	–	< 1000 nM
CN(C)CCN1CCN(C(=O)c2cc3cc(Nc4nc(N)n(-c5cc6c(nn5)-c5ccccc5SCC6)n4)ccc3s2)CC1 [Compound 131, 1-(6,7-dihydro-5H-benzo[2,3]thiepino[4,5-c]pyridazin-3-yl)-N^3-(2-(1-(4-(2-(dimethylamino)ethyl)-piperazin-1-yl)oxomethyl)benzo[b]thio-phen-5-yl)-1H-1,2,4-triazole-3,5-diamine]	–	1000 to 10000 nM
